Results from the supplement of paper PMC10307832.

Assays:
Experiment in all cases: relative viability (nuclei count vs DMSO), 5 days (fraction); higher = more cells survive
[1] = compound: O=C(O)c1ccc2c(c1)nc(Nc1cccc(Cl)c1)c1ccncc12 [Silmitasertib] + Nc1ncn([C@H]2C[C@H](O)[C@@H](CO)O2)c(=O)n1 [Decitabine] (partner 2 µM)
Summary of the method: (§1)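 Nuclei were stained with Hoechst during a one-step fixation (final 0.05% Triton X-100, 1% formaldehyde, 1 ug/ml Hoechst) carried out 5 days after dosing, then counted on 4× images. The cells, lung cancer lines in 1536-well plates, had been dosed by pin tool the day after seeding with one drug alone or a fixed anchor-drug dose plus five library-drug doses (not always all listed) in √10 steps. Relative viability is the nuclei count in treated wells divided by that in vehicle wells, and each value is the median of duplicate plates.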

[2] = compound: O=C(O)c1ccc2c(c1)nc(Nc1cccc(Cl)c1)c1ccncc12 [Silmitasertib] + CCNC(=O)c1noc(-c2cc(C(C)C)c(O)cc2O)c1-c1ccc(CN2CCOCC2)cc1 [Luminespib] (partner 0.01 µM)
Summary of the method: as §1

[3] = compound: O=C(O)c1ccc2c(c1)nc(Nc1cccc(Cl)c1)c1ccncc12 [Silmitasertib] + COc1cc2c(Oc3ccc(NC(=O)C4(C(=O)Nc5ccc(F)cc5)CC4)cc3F)ccnc2cc1OCCCN1CCOCC1 [Foretinib] (partner 0.25 µM)
Summary of the method: as §1

[4] = compound: O=C(O)c1ccc2c(c1)nc(Nc1cccc(Cl)c1)c1ccncc12 [Silmitasertib] + Cc1nc(NC(=O)N2CCC[C@H]2C(N)=O)sc1-c1ccnc(C(C)(C)C(F)(F)F)c1 [Alpelisib] (partner 2 µM)
Summary of the method: as §1

Silmitasertib + OSI-027 = compound: O=C(O)c1ccc2c(c1)nc(Nc1cccc(Cl)c1)c1ccncc12 [Silmitasertib] + COc1cccc2cc(-c3nc([C@H]4CC[C@H](C(=O)O)CC4)n4ncnc(N)c34)[nH]c12 [OSI-027] (partner 0.5 µM)
Summary of the method: as §1

Cell Line: NCI-H650
- relative viability ([1]; first compound 0.04 µM): 0.309
- relative viability ([1]; first compound 0.4 µM): 0.315
- relative viability ([1]; first compound 1.265 µM): 0.322
- relative viability ([1]; first compound 4 µM): 0.341
- relative viability ([2]; first compound 0.04 µM): 0.886
- relative viability ([2]; first compound 0.4 µM): 0.599
- relative viability ([2]; first compound 1.265 µM): 0.436
- relative viability ([2]; first compound 4 µM): 0.457
- relative viability ([3]; first compound 0.04 µM): 1.07
- relative viability ([3]; first compound 0.4 µM): 0.699
- relative viability ([3]; first compound 1.265 µM): 0.884
- relative viability ([3]; first compound 4 µM): 0.777
- relative viability ([4]; first compound 0.04 µM): 1.16
- relative viability ([4]; first compound 0.4 µM): 0.648
- relative viability ([4]; first compound 1.265 µM): 1.09
- relative viability ([4]; first compound 4 µM): 0.99
- relative viability (Silmitasertib + OSI-027; first compound 0.04 µM): 0.699
- relative viability (Silmitasertib + OSI-027; first compound 0.4 µM): 0.424
- relative viability (Silmitasertib + OSI-027; first compound 1.265 µM): 0.515
- relative viability (Silmitasertib + OSI-027; first compound 4 µM): 0.366

Cell Line: LCLC-103H
- relative viability ([1]; first compound 0.04 µM): 0.791
- relative viability ([1]; first compound 0.4 µM): 0.655
- relative viability ([1]; first compound 1.265 µM): 0.616
- relative viability ([1]; first compound 4 µM): 0.556
- relative viability ([2]; first compound 0.04 µM): 0.909
- relative viability ([2]; first compound 0.4 µM): 0.707
- relative viability ([2]; first compound 1.265 µM): 0.751
- relative viability ([2]; first compound 4 µM): 0.548
- relative viability ([3]; first compound 0.04 µM): 0.828
- relative viability ([3]; first compound 0.4 µM): 0.74
- relative viability ([3]; first compound 1.265 µM): 0.632
- relative viability ([3]; first compound 4 µM): 0.625
- relative viability ([4]; first compound 0.04 µM): 0.995
- relative viability ([4]; first compound 0.4 µM): 1.01
- relative viability ([4]; first compound 1.265 µM): 0.971
- relative viability ([4]; first compound 4 µM): 0.939
- relative viability (Silmitasertib + OSI-027; first compound 0.04 µM): 0.519
- relative viability (Silmitasertib + OSI-027; first compound 0.4 µM): 0.4
- relative viability (Silmitasertib + OSI-027; first compound 1.265 µM): 0.438
- relative viability (Silmitasertib + OSI-027; first compound 4 µM): 0.384

Cell Line: PC-14
- relative viability ([1]; first compound 0.04 µM): 0.265
- relative viability ([1]; first compound 0.4 µM): 0.214
- relative viability ([1]; first compound 1.265 µM): 0.271
- relative viability ([1]; first compound 4 µM): 0.192
- relative viability ([2]; first compound 0.04 µM): 0.188
- relative viability ([2]; first compound 1.265 µM): 0.14
- relative viability ([2]; first compound 4 µM): 0.179
- relative viability ([3]; first compound 0.04 µM): 1.05
- relative viability ([3]; first compound 0.4 µM): 1.02
- relative viability ([3]; first compound 1.265 µM): 0.965
- relative viability ([3]; first compound 4 µM): 0.461
- relative viability ([4]; first compound 0.04 µM): 0.968
- relative viability ([4]; first compound 0.4 µM): 0.942
- relative viability ([4]; first compound 1.265 µM): 0.924
- relative viability ([4]; first compound 4 µM): 0.939
- relative viability (Silmitasertib + OSI-027; first compound 0.04 µM): 1.03
- relative viability (Silmitasertib + OSI-027; first compound 0.4 µM): 0.537
- relative viability (Silmitasertib + OSI-027; first compound 1.265 µM): 0.706
- relative viability (Silmitasertib + OSI-027; first compound 4 µM): 0.46

Cell Line: COR-L23
- relative viability ([1]; first compound 0.04 µM): 0.495
- relative viability ([1]; first compound 0.4 µM): 0.507
- relative viability ([1]; first compound 1.265 µM): 0.501
- relative viability ([1]; first compound 4 µM): 0.368
- relative viability ([2]; first compound 0.04 µM): 0.716
- relative viability ([2]; first compound 0.4 µM): 0.66
- relative viability ([2]; first compound 1.265 µM): 0.646
- relative viability ([2]; first compound 4 µM): 0.678
- relative viability ([3]; first compound 0.04 µM): 1.09
- relative viability ([3]; first compound 0.4 µM): 0.794
- relative viability ([3]; first compound 1.265 µM): 0.951
- relative viability ([3]; first compound 4 µM): 1.16
- relative viability ([4]; first compound 0.04 µM): 0.843
- relative viability ([4]; first compound 0.4 µM): 0.788
- relative viability ([4]; first compound 1.265 µM): 0.759
- relative viability ([4]; first compound 4 µM): 0.586
- relative viability (Silmitasertib + OSI-027; first compound 0.04 µM): 0.786
- relative viability (Silmitasertib + OSI-027; first compound 0.4 µM): 0.496
- relative viability (Silmitasertib + OSI-027; first compound 1.265 µM): 0.828
- relative viability (Silmitasertib + OSI-027; first compound 4 µM): 0.419

Cell Line: NCI-H1915
- relative viability ([1]; first compound 0.04 µM): 0.266
- relative viability ([1]; first compound 1.265 µM): 0.259
- relative viability ([1]; first compound 4 µM): 0.253
- relative viability ([2]; first compound 0.04 µM): 0.83
- relative viability ([2]; first compound 1.265 µM): 0.77
- relative viability ([2]; first compound 4 µM): 0.669
- relative viability ([3]; first compound 0.04 µM): 1.13
- relative viability ([3]; first compound 1.265 µM): 1.05
- relative viability ([3]; first compound 4 µM): 0.991
- relative viability ([4]; first compound 0.04 µM): 1.05
- relative viability ([4]; first compound 1.265 µM): 1.14
- relative viability ([4]; first compound 4 µM): 0.885
- relative viability (Silmitasertib + OSI-027; first compound 0.04 µM): 0.624
- relative viability (Silmitasertib + OSI-027; first compound 1.265 µM): 0.676
- relative viability (Silmitasertib + OSI-027; first compound 4 µM): 0.351
